The target in test [1] is T1, Cbl-b (Homo sapiens, UniProt Q13191).
T1 construct: Cbl-b-HiBit KI Jurkat Cells were purchased from Promega; host or cells: Cbl-b-HiBiT knock-in Jurkat cells
Kind of test: Cbl-b Degradation Method A (FACS, anti-Cbl-b antibody staining). Format: cell-based. Particulars: for DC50: half maximal degradation, read-out: Cbl-b Degredation Method A IC50; for Dmax: Jurkat, read-out: Cbl-b Degredation Method A Dmax (%). In short, it runs like this: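 Readout is flow cytometry of fixed, permeabilized cells immunostained for Cbl-b (primary 1:200, AF488 secondary). Cells were Cbl-b-HiBit knock-in Jurkat, exposed to compound ≥20 h at 37 °C; half-maximal degradation concentration (DC50) and maximal degradation (Dmax) calculated relative to control.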

Test [2] concerns the target T1, Cbl-b. The test can be described thus: Cbl-b Degradation Method B (Nano-Glo HiBiT lytic detection). Format: cell-based. Particulars: Cbl-b-HiBit KI Jurkat Cells, incubated at least 6-24 hours; for DC50: half maximal degradation, read-out: Cbl-b Degredation Method B IC50; for Dmax: maximum degradation observed, read-out: Cbl-b Degredation Method B Dmax (%). In short, it runs like this: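 An 11-point, 3-fold compound dilution was applied for 6-24 hours to Jurkat cells carrying HiBiT-tagged endogenous Cbl-b. Lytic HiBiT luminescence quantified residual protein. Outputs are DC50 and Dmax relative to DMSO control.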
In general terms: The HiBiT peptide binds its large partner to form an active luciferase.

The mark [3] stands for this setting: Cbl-b-HiBit KI Jurkat Cells, incubated at least 20 hours.
Setting [4] is: Cbl-b-HiBit KI Jurkat Cells, incubated at least 20 hours, maximum degradation observed.

Structures are written as SMILES.

T1 sequence (Q13191 whole entry): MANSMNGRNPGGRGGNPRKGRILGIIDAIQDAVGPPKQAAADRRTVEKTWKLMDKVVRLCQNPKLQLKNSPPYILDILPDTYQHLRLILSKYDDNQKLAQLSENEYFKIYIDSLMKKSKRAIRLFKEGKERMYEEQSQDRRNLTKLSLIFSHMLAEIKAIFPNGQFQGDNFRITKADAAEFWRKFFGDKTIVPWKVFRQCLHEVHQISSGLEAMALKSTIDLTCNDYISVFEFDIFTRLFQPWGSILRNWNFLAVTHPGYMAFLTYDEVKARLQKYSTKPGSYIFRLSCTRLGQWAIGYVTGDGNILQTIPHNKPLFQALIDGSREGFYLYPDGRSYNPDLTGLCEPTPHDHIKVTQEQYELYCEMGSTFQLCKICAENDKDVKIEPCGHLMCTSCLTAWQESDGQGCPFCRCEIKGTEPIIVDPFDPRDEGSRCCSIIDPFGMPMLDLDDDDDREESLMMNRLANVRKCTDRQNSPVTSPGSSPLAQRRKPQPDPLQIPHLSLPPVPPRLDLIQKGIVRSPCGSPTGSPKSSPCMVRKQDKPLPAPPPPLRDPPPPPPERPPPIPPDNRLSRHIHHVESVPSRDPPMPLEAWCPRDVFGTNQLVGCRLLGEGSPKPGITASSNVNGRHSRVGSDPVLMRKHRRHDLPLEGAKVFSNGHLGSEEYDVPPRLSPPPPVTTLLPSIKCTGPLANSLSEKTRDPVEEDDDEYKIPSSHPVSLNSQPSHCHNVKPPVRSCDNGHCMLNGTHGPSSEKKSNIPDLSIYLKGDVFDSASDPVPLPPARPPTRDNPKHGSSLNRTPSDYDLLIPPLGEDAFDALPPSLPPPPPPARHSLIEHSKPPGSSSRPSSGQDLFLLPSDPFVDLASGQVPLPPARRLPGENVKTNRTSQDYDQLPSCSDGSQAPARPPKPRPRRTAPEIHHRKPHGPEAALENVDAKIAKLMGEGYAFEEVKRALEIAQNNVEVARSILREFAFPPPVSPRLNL

Take `Cn1cnnc1CC1(c2cccc(N3Cc4c(cc(N5CC(C6CCN(c7ccc8c(c7)C(=O)N(C7CCC(=O)NC7=O)C8=O)CC6)C5)cc4C(F)(F)F)C3=O)c2)COC1` (centres unmarked) [Example 129, 2-(2,6-dioxopiperidin-3-yl)-5-(4-{1-[2-(3-{3-[(4-methyl-4H-1,2,4-triazol-3-yl)methyl]oxetan-3-yl}phenyl)-3-oxo-7-(trifluoromethyl)-2,3-dihydro-1H-isoindol-5-yl]azetidin-3-yl}piperidin-1-yl)-2,3-dihydro-1H-isoindole-1,3-dione]: the DC50 in test [1] (setting [3]) is 50 to 500 nM; in test [2], greater than 500 nM.

With `Cn1cnnc1CC1(c2cccc(N3Cc4c(cc(N5CC6(CCN(Cc7ccc8c(c7)C(=O)N(C7CCC(=O)NC7=O)C8=O)CC6)C5)cc4C(F)(F)F)C3=O)c2)COC1` (centres unmarked) [Example 130, 2-(2,6-dioxopiperidin-3-yl)-5-({2-[2-(3-{3-[(4-methyl-4H-1,2,4-triazol-3-yl)methyl]oxetan-3-yl}phenyl)-3-oxo-7-(trifluoromethyl)-2,3-dihydro-1H-isoindol-5-yl]-2,7-diazaspiro[3.5]nonan-7-yl}methyl)-2,3-dihydro-1H-isoindole-1,3-dione], the DC50 in test [1] (setting [3]) and in test [2] was greater than 500 nM in each case.

With `Cn1cnnc1CC1(c2cccc(N3Cc4c(cc(N5CC6(CCN(CC7CCN(c8ccc9c(n8)CN(C8CCC(=O)NC8=O)C9=O)CC7)CC6)C5)cc4C(F)(F)F)C3=O)c2)COC1` (centres unmarked) [Example 131, 3-{2-[4-({2-[2-(3-{3-[(4-methyl-4H-1,2,4-triazol-3-yl)methyl]oxetan-3-yl}phenyl)-3-oxo-7-(trifluoromethyl)-2,3-dihydro-1H-isoindol-5-yl]-2,7-diazaspiro[3.5]nonan-7-yl}methyl)piperidin-1-yl]-5-oxo-5H,6H,7H-pyrrolo[3,4-b]pyridin-6-yl}piperidine-2,6-dione], the DC50 in test [1] (setting [3]) was 5 to 50 nM; in test [2] it was less than 5 nM. In addition, the Dmax in test [1] (setting [4]) and in test [2] was 35 to 70% throughout.

For the compound `Cn1cnnc1CC1(c2cccc(N3Cc4c(cc(N5CC6(CCN(CC7CN(c8ccc9c(c8)C(=O)N(C8CCC(=O)NC8=O)C9=O)C7)CC6)C5)cc4C(F)(F)F)C3=O)c2)COC1` (centres unmarked) [Example 132, 2-(2,6-dioxopiperidin-3-yl)-5-[3-({2-[2-(3-{3-[(4-methyl-4H-1,2,4-triazol-3-yl)methyl]oxetan-3-yl}phenyl)-3-oxo-7-(trifluoromethyl)-2,3-dihydro-1H-isoindol-5-yl]-2,7-diazaspiro[3.5]nonan-7-yl}methyl)azetidin-1-yl]-2,3-dihydro-1H-isoindole-1,3-dione], the DC50 was 5 to 50 nM in test [1] (setting [3]) and less than 5 nM in test [2]. Besides, the Dmax in test [1] (setting [4]) and in test [2] was 35 to 70% each time.

Regarding `Cn1cnnc1CC1(c2cccc(N3Cc4c(cc(N5CCC(CC6CN(c7ccc8c(c7)C(=O)N(C7CCC(=O)NC7=O)C8=O)C6)CC5)cc4C(F)(F)F)C3=O)c2)COC1` (centres unmarked) [Example 134, 2-(2,6-dioxopiperidin-3-yl)-5-[3-({1-[2-(3-{3-[(4-methyl-4H-1,2,4-triazol-3-yl)methyl]oxetan-3-yl}phenyl)-3-oxo-7-(trifluoromethyl)-2,3-dihydro-1H-isoindol-5-yl]piperidin-4-yl}methyl)azetidin-1-yl]-2,3-dihydro-1H-isoindole-1,3-dione], the DC50 in test [1] (setting [3]) was 50 to 500 nM; in test [2], greater than 500 nM. Besides, the Dmax (as a rule, the greatest extent of degradation seen) in test [1] (setting [4]) was less than 35%.

Regarding `Cn1cnnc1CC1(c2cccc(N3Cc4c(cc(N5CCC6(CC5)CN(CC5CCN(c7ccc8c(c7)C(=O)N(C7CCC(=O)NC7=O)C8=O)CC5)C6)cc4C(F)(F)F)C3=O)c2)COC1` (centres unmarked) [Example 135, 2-(2,6-dioxopiperidin-3-yl)-5-[4-({7-[2-(3-{3-[(4-methyl-4H-1,2,4-triazol-3-yl)methyl]oxetan-3-yl}phenyl)-3-oxo-7-(trifluoromethyl)-2,3-dihydro-1H-isoindol-5-yl]-2,7-diazaspiro[3.5]nonan-2-yl}methyl)piperidin-1-yl]-2,3-dihydro-1H-isoindole-1,3-dione], the DC50 in test [1] (setting [3]) is 50 to 500 nM; in test [2] it was greater than 500 nM.

Consider `Cn1cnnc1C[C@]1(c2cccc(N3Cc4c(cc(N5CC6(CCN(CC7CCN(c8ccc9c(c8)C(=O)N(C8CCC(=O)NC8=O)C9=O)CC7)CC6)C5)cc4C(F)(F)F)C3=O)c2)C[C@H](C#N)C1` (some centres unmarked) [Example 136, (1r,3r)-3-(3-{6-[7-({1-[2-(2,6-dioxopiperidin-3-yl)-1,3-dioxo-2,3-dihydro-1H-isoindol-5-yl]piperidin-4-yl}methyl)-2,7-diazaspiro[3.5]nonan-2-yl]-1-oxo-4-(trifluoromethyl)-2,3-dihydro-1H-isoindol-2-yl}phenyl)-3-[(4-methyl-4H-1,2,4-triazol-3-yl)methyl]cyclobutane-1-carbonitrile], for which the DC50 in test [1] (setting [3]) and in test [2] was 5 to 50 nM throughout. Moreover, the Dmax in test [1] (setting [4]) and in test [2] was 35 to 70% throughout.

Turning to `Cn1cnnc1C[C@]1(c2cccc(N3Cc4c(cc(N5CC6(CCN(CC7CCN(c8ccc9c(c8)C(=O)N(C8CCC(=O)NC8=O)C9=O)CC7)CC6)C5)cc4C(F)(F)F)C3=O)c2)C[C@@H](C#N)C1` (some centres unmarked) [Example 137, (1s,3s)-3-(3-{6-[7-({1-[2-(2,6-dioxopiperidin-3-yl)-1,3-dioxo-2,3-dihydro-1H-isoindol-5-yl]piperidin-4-yl}methyl)-2,7-diazaspiro[3.5]nonan-2-yl]-1-oxo-4-(trifluoromethyl)-2,3-dihydro-1H-isoindol-2-yl}phenyl)-3-[(4-methyl-4H-1,2,4-triazol-3-yl)methyl]cyclobutane-1-carbonitrile], the DC50 in test [1] (setting [3]) and in test [2] was 5 to 50 nM throughout. In addition, the Dmax in test [1] (setting [4]) and in test [2] was 35 to 70% throughout.

Consider `CC1c2cc(N3CCC(CN4CCC5(CC4)CN(c4cc6c(c(C(F)(F)F)c4)CN(c4cccc(C7(Cc8nncn8C)COC7)c4)C6=O)C5)CC3)ccc2C(=O)N1C1CCC(=O)NC1=O` (centres unmarked) [Example 138, 3-{3-methyl-5-[4-({2-[2-(3-{3-[(4-methyl-4H-1,2,4-triazol-3-yl)methyl]oxetan-3-yl}phenyl)-3-oxo-7-(trifluoromethyl)-2,3-dihydro-1H-isoindol-5-yl]-2,7-diazaspiro[3.5]nonan-7-yl}methyl)piperidin-1-yl]-1-oxo-2,3-dihydro-1H-isoindol-2-yl}piperidine-2,6-dione], for which the values for the DC50 in test [1] (setting [3]) and in test [2] were 5 to 50 nM and less than 5 nM, respectively. The figures for the Dmax in test [1] (setting [4]) and in test [2] were 35 to 70% and less than 35%, respectively.

As to `Cn1cnnc1CC1(c2cccc(N3Cc4c(cc(N5CCN(C[C@H]6CC[C@H](OC7CCN(c8ccc9c(c8F)CN(C8CCC(=O)NC8=O)C9=O)CC7)CC6)CC5)cc4C(F)(F)F)C3=O)c2)COC1` (some centres unmarked) [Example 139, 3-[4-fluoro-1-oxo-5-(4-{[(1r,4r)-4-({4-[2-(3-{3-[(4-methyl-4H-1,2,4-triazol-3-yl)methyl]oxetan-3-yl}phenyl)-3-oxo-7-(trifluoromethyl)-2,3-dihydro-1H-isoindol-5-yl]piperazin-1-yl}methyl)cyclohexyl]oxy}piperidin-1-yl)-2,3-dihydro-1H-isoindol-2-yl]piperidine-2,6-dione], the DC50 in test [1] (setting [3]) and in test [2] was 5 to 50 nM throughout. Further, the Dmax in test [1] (setting [4]) and in test [2] was 35 to 70% in each case.

Consider `Cn1cnnc1CC1(c2cccc(N3Cc4c(cc(CN5CCC[C@H](CN6CCN(C[C@H]7CC[C@H](OC8CCN(c9ccc%10c(c9F)CN(C9CCC(=O)NC9=O)C%10=O)CC8)CC7)CC6(C)C)C5)cc4C(F)(F)F)C3=O)c2)COC1` (stereo partly drawn) [Example 148, 3-[5-[4-[4-[[3,3-dimethyl-4-[[(3S)-1-[[2-[3-[3-[(4-methyl-1,2,4-triazol-3-yl)methyl]oxetan-3-yl]phenyl]-3-oxo-7-(trifluoromethyl)isoindolin-5-yl]methyl]-3-piperidyl]methyl]piperazin-1-yl]methyl]cyclohexoxy]-1-piperidyl]-4-fluoro-1-oxo-isoindolin-2-yl]piperidine-2,6-dione], for which the DC50 in test [1] (setting [3]) and in test [2] was less than 5 nM in each case. In addition, the Dmax in test [1] and in test [2] was greater than 70% in each case.

In the case of `Cn1cnnc1[C@]1(c2cccc(N3Cc4c(cc(CN5CCC[C@H](CN6CCN(C[C@H]7CC[C@@H](OC8CCN(c9ccc%10c(c9F)CN(C9CCC(=O)NC9=O)C%10=O)CC8)CC7)CC6)C5)cc4C(F)(F)F)C3=O)c2)C[C@@H](C)C1` (stereo partly drawn) [Example 157, 3-[4-fluoro-1-oxo-5-(4-{[(1r,4r)-4-[(4-{[(3S)-1-[(3-oxo-2-{3-[(1r,3s)-3-methyl-1-(4-methyl-4H-1,2,4-triazol-3-yl)cyclobutyl]phenyl}-7-(trifluoromethyl)-2,3-dihydro-1H-isoindol-5-yl)methyl]piperidin-3-yl]methyl}piperazin-1-yl)methyl]cyclohexyl]oxy}piperidin-1-yl)-2,3-dihydro-1H-isoindol-2-yl]piperidine-2,6-dione], the DC50 in test [1] (setting [3]) and in test [2] was less than 5 nM throughout. The figures for the greatest degradation seen (Dmax) in test [1] (setting [4]) and in test [2] were greater than 70% and 35 to 70%, respectively.

(Values after patent US20260184710A1, “CASITAS B-LINEAGE LYMPHOMA PROTOONCOGENE B (CBL-B) DEGRADING COMPOUNDS AND ASSOCIATED METHODS OF USE” (Arvinas Operations, Inc., priority 2022, published 2026).)
